Holding throughout (assay): growth of human tumour cells (NCI), 48 h
The subject of test [1] is HOP-62 NSCLC.
The subject of test [2] is EKVX NSCLC.
Test [3] concerns PC-3 prostate.
For test [4], the system named is TK-10 renal.
Test [5] has as its system SK-OV-3 ovarian.
Test [6] has as its system HCT-116 colon.
For test [7], the system named is KM12 colon.
Test [8] concerns DU-145 prostate.
The subject of test [9] is CCRF-CEM leukemia.
Test [10] has as its system MCF7 breast.
Test [11] concerns MOLT-4 leukemia.
In test [12] the test system is SN12C renal.
The test system of test [13] is RXF 393 renal.
For test [14], the system named is MALME-3M melanoma.
Test [15] concerns 786-0 renal.
Test [16] relates to OVCAR-4 ovarian.

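96-well plates; 48 h exposure; 5 concentrations. Endpoints by linear interpolation between flanking doses. Not reached: highest tested concentration assigned. TGI marks complete inhibition of growth.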 Some results are limits rather than exact numbers.

Consider `CC12CC3OC(=O)C1COC14OC5(C2C1=O)C(O)(CCC1C4CC2OC24CC=CC(=O)C14C)C(=O)OC35C` (stereo not drawn), for which the TGI in test [1] was 39.4 µM; in [2], above 100 µM; in test [3], 40.1 µM; in test [4] it was 30.8 µM; in [5], above 100 µM; in test [6] it was 29.2 µM. Also, the TGI in test [7] came out at 36.5 µM; in [8] it was 27.7 µM; in test [9], 24.1 µM; in test [10], 40.9 µM; in test [11], 66.9 µM; in test [12], 60.1 µM. The TGI was 13.4 µM in test [13], 52.8 µM in [14], 28.7 µM in [15] and above 100 µM in [16].

With `O=[N+]([O-])c1ccc(N/N=C/CC(O)(C(F)(F)F)C(F)(F)F)c([N+](=O)[O-])c1`, the TGI in test [1], in [2], in test [3], in test [4], in test [5] and in [6] was above 10 µM throughout. Besides, the TGI in test [7], in test [8], in test [9], in [10], in [11] and in test [12] was above 10 µM each time. The TGI in [13], in [14], in test [15] and in test [16] was above 10 µM throughout.

As to `CCCCCc1nnc(NS(=O)(=O)c2ccc(NC(=O)OCC(C)C)cc2)s1`, the TGI was above 100 µM in test [1]; 78.2 µM in [2]; above 100 µM in [3]; above 100 µM in [4]; above 100 µM in test [5]; 53.7 µM in [6]. The TGI in test [7] is above 100 µM; in test [8], above 100 µM; in test [9], 77.1 µM; in [10] it was above 100 µM; in test [11], 54 µM; in test [12], above 100 µM. In addition, the TGI in test [13] was above 100 µM; in test [14] it was 94.6 µM; in [15], above 100 µM; in test [16], 56.5 µM.

In the case of `COc1cc2cc(C(=O)N3CC(CCl)c4c3cc(NC(=O)OCc3ccc([N+](=O)[O-])cc3)c3ccccc43)[nH]c2c(OC)c1OC` (stereo not drawn), the TGI in test [1] is above 100 µM; in [2] it was above 100 µM; in [3] it was above 100 µM; in test [5], above 100 µM; in test [6], above 79.8 µM; in test [7], above 74.2 µM. Besides, the TGI is 18 µM in test [8]; above 57.6 µM in [9]; above 100 µM in test [10]; above 100 µM in test [11]; above 100 µM in test [12]; above 100 µM in [13]. In addition, the TGI is above 100 µM in test [14], above 39.3 µM in [15] and above 100 µM in test [16].

In the case of `Cc1cn(CCCCCCC2=NCCCN2)c(=O)[nH]c1=O`, the TGI in test [1], in [2], in [3], in test [4], in test [5] and in [6] was above 100 µM in each case. Moreover, the TGI in [7], in test [8], in [9], in test [10], in test [11] and in [12] was above 100 µM throughout. Further, the TGI in test [13], in [14], in test [15] and in test [16] was above 100 µM in each case.

`O=c1sc2c(s1)-c1sc(=O)sc1SS2`: the TGI was above 100 µM in test [1]; above 100 µM in test [2]; above 100 µM in [3]; above 79.4 µM in test [4]; above 100 µM in [5]; above 100 µM in test [6]. For the same compound, the TGI is above 100 µM in test [7]; above 89.8 µM in test [8]; above 96 µM in test [9]; above 100 µM in [10]; above 100 µM in [11]; above 100 µM in test [12]. Moreover, the TGI in test [13], in [14], in test [15] and in [16] was above 100 µM in each case.

With `COC(=O)CCc1ccc2c(c1)C(=O)CC2`, the TGI in test [1], in test [2], in test [3], in test [4], in [5] and in test [6] was above 100 µM throughout. Also, the TGI in [8], in [9], in test [10], in [11], in [13] and in test [14] was above 100 µM throughout. In addition, the TGI in test [15] and in test [16] was above 100 µM each time.

As to `CCOC(=O)c1nc2ccccc2nc1Oc1ccc(C(=O)OC)cc1`, the TGI in test [1], in [2], in test [3], in test [4], in test [5] and in [6] was above 100 µM throughout. For the same compound, the TGI in test [7], in test [8], in test [9], in test [10], in test [11] and in test [12] was above 100 µM each time. Besides, the TGI in test [13], in test [14], in test [15] and in test [16] was above 100 µM in each case.

For `COc1ccc(NC(=O)CC(=O)n2nc(C)c(N=Nc3cccc(C)c3)c2C)cc1`, the TGI is above 100 µM in [1]; above 100 µM in test [2]; above 100 µM in [3]; above 100 µM in test [4]; 78.7 µM in [5]; above 100 µM in [6]. The TGI in test [7], in [8], in [9], in test [10], in [11] and in test [12] was above 100 µM in each case. Also, the TGI in [13], in test [14], in test [15] and in test [16] was above 100 µM throughout.

Turning to `COc1ccc(/C=C/C(=O)c2cc(C(C)(C)C)c(O)c(C(C)(C)C)c2)cc1OC`, the TGI in [1] was above 100 µM; in [2] it was above 100 µM; in test [3] it was above 46.4 µM; in [4] it was 47.4 µM; in test [5] it was above 100 µM; in [6], 48.6 µM. For the same compound, the TGI in test [7] is above 59.4 µM; in [8] it was above 70.3 µM; in test [9], 11.8 µM; in test [10] it was 32.4 µM; in test [11] it was above 49.6 µM; in [12] it was 65.5 µM. Moreover, the TGI in [13] is 7.69 µM; in test [14] it was above 100 µM; in test [15], 27.4 µM; in test [16], above 92.9 µM.

As for `O=C(CCCCCCCCC(=O)N1C(=O)CC(=O)N(c2ccccc2)C1=S)N1C(=O)CC(=O)N(c2ccccc2)C1=S`, the TGI in [1], in test [2], in test [3], in [4], in [5] and in test [6] was above 100 µM throughout. Also, the TGI in test [7], in test [8], in test [9], in test [10], in [11] and in test [12] was above 100 µM throughout. The TGI in test [13], in [14], in [15] and in test [16] was above 100 µM throughout.

`CN(CCO)CCCC1COc2ccccc2O1` (stereo not drawn): the TGI in [1], in [2], in test [3], in test [4], in test [5] and in test [6] was above 100 µM in each case. Further, the TGI in [8], in test [9], in test [10], in test [11], in [12] and in test [13] was above 100 µM each time. The TGI in [14], in test [15] and in test [16] was above 100 µM in each case.

In the case of `C[n+]1c(-c2ccc(/C=N/Nc3ccnc(N/N=C/c4ccc(-c5cn6ccsc6[n+]5C)cc4)n3)cc2)cn2ccsc21`, the TGI in test [1] was 80.2 µM; in [2], 45.7 µM; in [3] it was 79.9 µM; in test [4], above 100 µM; in test [5] it was above 100 µM; in test [7] it was above 100 µM. For the same compound, the TGI was 82 µM in test [8]; 44.2 µM in test [9]; above 100 µM in [10]; 64.9 µM in [11]; above 100 µM in test [12]; 51.9 µM in test [13]. Further, the TGI in [14] was above 100 µM; in test [15] it was 46.6 µM; in [16] it was above 100 µM.

With `CCCCCc1cc2cc3c(c(O)c2c(=O)[nH]1)C1(CCC3)C(O)=c2c(=O)c3c(=O)cc(OC)c(=O)c=3c(=O)c2=C1O` (stereo not drawn), the TGI in test [1] is 7.67 µM; in test [2], 2.83 µM; in test [3], 3.66 µM; in test [5], 5.38 µM; in test [6], 2.41 µM; in [7], 4.22 µM. The TGI in test [8] is 3.34 µM; in test [9] it was above 18.7 µM; in test [10] it was 2.06 µM; in test [11] it was 4.01 µM; in test [12], 3.91 µM; in test [13], 1.82 µM. For the same compound, the TGI in test [14] amounted to 2.95 µM; in test [15], 2.69 µM; in [16], 4.44 µM.

Take `CCOC(=O)C[n+]1cccc(C2(c3cc4ccccc4[nH]3)OCCO2)c1`: the TGI in [1], in test [2], in [3], in test [4], in test [5] and in test [6] was above 100 µM each time. Further, the TGI in test [7], in [8], in [9], in test [10], in test [11] and in test [13] was above 100 µM in each case. Further, the TGI in test [14], in test [15] and in test [16] was above 100 µM each time.

As to `O=c1oc2ccc([N+](=O)[O-])cc2c(Nc2ccc3c(c2)Sc2ccccc2O3)c1[N+](=O)[O-]`, the TGI in test [1] came out at 44.7 µM; in test [2] it was 68.8 µM; in test [3], 40.8 µM; in test [4], 58.3 µM; in test [5], 47.6 µM; in test [6], 30.5 µM. Further, the TGI in [7] turned out to be 49.8 µM; in test [8], 99.5 µM; in test [9] it was 50.4 µM; in [10], 56.7 µM; in test [12], 51.2 µM; in test [13] it was 40.2 µM. Further, the TGI in [14] is above 100 µM; in test [15], 39.9 µM; in test [16], 98.2 µM.

Turning to `COC12CCCN1c1ccn(Cc3ccccc3)c(=O)c1C2=O` (stereo not drawn), the TGI in [2], in [3], in test [4], in test [5], in [6] and in test [7] was above 100 µM throughout. For the same compound, the TGI in test [8], in test [9], in [10], in [11], in test [12] and in test [13] was above 100 µM in each case. Further, the TGI in test [14], in test [15] and in [16] was above 100 µM each time.

For `O=C1Nc2ccccc2Cn2c1cc1oc(-c3ccccc3)cc12`, the TGI in test [1] is 44.8 µM; in [2], above 100 µM; in test [3] it was above 100 µM; in test [4] it was above 100 µM; in test [5], 69.9 µM; in test [7] it was above 100 µM. Further, the TGI in [8] is above 100 µM; in test [9], above 100 µM; in test [10] it was above 100 µM; in test [11] it was above 100 µM; in test [12] it was above 100 µM; in [13], 53 µM. The figures for the TGI in [14], in test [15] and in test [16] were above 100 µM, 45.4 µM and above 100 µM, respectively.
